US10231980B2, “Cortexolone 17alpha-benzoate for use in the treatment of tumours” (COSMO TECHNOLOGIES LTD., priority 2014, dated 2019)
Where two headings read alike, the source gives them in different places.

Columns and labels:
22Rv1 = assay: In vitro proliferation, larger panel (Example 14); format: cell-based; conditions: Homo sapiens, Table III
Description: Results are depicted in Table III.

MDA-MB-231 = assay: In vitro proliferation / cytotoxic assay on breast cancer cells (Examples 14, 25); format: cell-based; conditions: Homo sapiens
Method: Data shown in Table I were fitted through sigmoidal dose response curves and analyzed using Prizm statistical.
For the cytotoxic assay, cells were seeded in 96-well flat bottom culture plates in media containing charcoal stripped serum. After 24 hours, test compounds were added to the cells. DMSO was used as the vehicle negative control and RU486 as the positive control. After 72 hour incubation, cells were harvested and lysed to determine cell viability using the Cell Titer Glow assay.

[1] = target: T1, glucocorticoid receptor (GR) (Homo sapiens, UniProt P04150); assay: GR reporter antagonist assay (inhibition of Dexamethasone-induced luminescence); format: cell-based; conditions: inhibition of Dex-induced luminescence
T1 construct: endogenous in cells; host or cells: human kidney epithelial cells
T1 sequence (P04150 1-777): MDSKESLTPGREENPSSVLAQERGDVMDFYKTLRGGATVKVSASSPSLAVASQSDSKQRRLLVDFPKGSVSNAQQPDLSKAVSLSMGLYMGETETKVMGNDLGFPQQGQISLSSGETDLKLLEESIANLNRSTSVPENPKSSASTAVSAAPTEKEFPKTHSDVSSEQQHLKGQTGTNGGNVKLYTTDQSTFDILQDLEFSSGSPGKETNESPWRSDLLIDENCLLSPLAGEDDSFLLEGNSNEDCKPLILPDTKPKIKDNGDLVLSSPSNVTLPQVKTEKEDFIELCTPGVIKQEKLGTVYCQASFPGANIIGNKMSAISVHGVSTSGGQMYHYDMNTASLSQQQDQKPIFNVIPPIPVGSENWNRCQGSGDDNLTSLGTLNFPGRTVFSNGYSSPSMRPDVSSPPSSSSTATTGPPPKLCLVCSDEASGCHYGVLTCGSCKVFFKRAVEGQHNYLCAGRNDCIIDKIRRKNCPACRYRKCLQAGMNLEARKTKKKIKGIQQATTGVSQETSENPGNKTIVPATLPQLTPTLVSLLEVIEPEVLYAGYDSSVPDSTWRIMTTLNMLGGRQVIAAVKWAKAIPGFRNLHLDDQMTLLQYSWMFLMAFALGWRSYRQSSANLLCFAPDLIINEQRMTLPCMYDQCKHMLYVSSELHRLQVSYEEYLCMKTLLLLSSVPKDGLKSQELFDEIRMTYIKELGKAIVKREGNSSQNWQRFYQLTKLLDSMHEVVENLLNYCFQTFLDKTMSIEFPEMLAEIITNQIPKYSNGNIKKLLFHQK
Method: (§1) The androgen and glucocorticoid hormones elicit divergent and often opposing effects in cells, tissues, and animals. […] CB-03-06 GR antagonist and agonist activities were tested on an in vitro assay. Briefly, human kidney epithelial cells were transfected with DNA construct containing GR binding sites linked to luminescent based reporter molecule. After 24 hours, cells were treated under antagonist or agonist modes. After an additional 24 hours, luminescence which is proportional to GR agonist transcriptional activity was quantitated.
Antagonist Assay was based on inhibition of luminescence induced by Dexamethasone (Dex).
The antagonist activity of CB-03-06 was compared to a known GR antagonist, Mifepristone (also called RU486) as shown in FIG. 7.

[2] = target: T1, glucocorticoid receptor (GR); assay: GR reporter agonist assay (induction of luminescence); format: cell-based; conditions: agonist mode
Method: as §1
Agonist Assay—was based on induction of luminescence by CB-03-06
The agonist activity of CB-03-06 was compared to a RU486 which is known to not have agonist activity.

MiaPaca2 = assay: Cell cycle arrest, propidium iodide staining; format: cell-based; conditions: 24 hours, different concentrations
Method: Apoptosis can occur at the G1/S or G2/M transition of the cell cycle. Cells were treated with CB-03-10 for 24 hours then fixed with paraformaldehyde and stained with propidium iodide. […] The lack of G1 block indicates no effect on p53. The S & G2/M blocks may indicate activity on cell cycle check point molecules. For S phase, a possible target is the cyclin dependent kinase 2 (CDK2). Gemzar and cisplatin are example drugs that act in S phase. For G2, a possible target is CDK1.

[3] = test system: caspases 8, 9, 3/7 in MiaPaca2 cells; assay: Caspase 8, 9 and 3/7 activity; format: cell-based
[4] = test system: caspases 8, 9, 3/7 in LNCaP cells; assay: Caspase 8, 9 and 3/7 activity; format: cell-based; conditions: 24 hour incubation, Enzalutamide positive control
Method: After 24 hours, test compounds were added to cells. Gemcitabine (a known pancreatic cancer chemotherapeutic agent) and DMSO were used as positive and negative controls, respectively. There were three incubation time points: 8 hours, 24 hours, and 48 hours. After each time point, cells were lysed in multiplex buffer containing the caspase 3/7 substrate combined with either caspase 8 or caspase 9 reagents, which contain stable luciferase in proprietary buffers. The lysates were transferred to white opaque 96-well plates before measuring luminescence on a Tecan Safire instrument. Parallel plates treated identically were used to determine cell viability. All caspase activities were corrected for the number of viable cells.
The same assay was repeated using LNCaP prostate cancer cell lines. […] The results are shown in FIG. 12 after 24 hour incubation when the caspase activities peaked.

[5] = In vivo pharmacokinetics in plasma; conditions: mice; for AUC: mouse, plasma
Method: The pharmacokinetic of CB-03-06 was evaluated in plasma of mice after intravenous (iv), subcutaneous (SC) and oral administration (PO).
Mice (3 per group) were administered with the following doses and blood was collected at the indicated times. Plasma samples were analyzed by HPLC-MS/MS.

[6] = test system: PSA secretion from LNCaP cells; assay: PSA secretion Elisa; format: cell-based; conditions: Homo sapiens, 48 h, read-out: inhibition of PSA secretion IC50
Method: (§2) Prostate-specific antigen, or PSA, is a protein produced by cells of the prostate gland. The PSA test measures the level of PSA in a person's blood. The blood level of PSA is often elevated in men with prostate cancer and it used as surrogate marker to test prostate cancer progression in human population. […] LNCaP cells were seeded in 96-well flat bottom culture plates in media containing charcoal stripped serum with or without 10 nM DHT. […] After 48 hours incubation with test compounds, supernatants were harvested and tested with an Elisa assay for PSA and the same cells were lysed for cell viability assessment.

LNCaP = assay: Cell viability of the cells of the PSA assay; format: cell-based; conditions: Homo sapiens, 48 h, read-out: cell viability IC50
Method: as §2

C[C@]12CCC(=O)C=C1CC[C@@H]1[C@@H]2CC[C@@]2(C)[C@H]1CC[C@]2(OC(=O)c1ccccc1)C(=O)CO [CB-03-06, cortexolone 17α-benzoate]
IC50 (22Rv1): 25 µM | IC50 (MDA-MB-231; MDA-MB-231, 72 h): 46 µM | IC50 (MDA-MB-231; MDA-MB-231, read-out: in vitro proliferation IC50): 46 µM | GR antagonist potency, times less than RU486 [1]: 100 times | GR agonist activity plateau [2]: 45 % of Dex maximum | concentration activating the GR to the same extent ([2]; CB-03-06 compared with Dex): 14 nM | cell cycle arrest (MiaPaca2): induces an S phase block at lower concentrations then a G2/M block at higher concentration | caspase 8 and 9 activity, increase compared to the control ([3]; 20 or 50 μM, evident after 8 hours): ≤ 7 fold | Caspase 3/7 induction ([3]; 48 hour incubation): induced by CB-03-06 at high level | Initiator (8 and 9) and Effector (3/7) caspase activities [4]: induced Initiator (8 and 9,) and Effector (3/7) caspase activities better than Enzalutamide | body exposure relative to subcutaneous administration ([5]; intravenously): 50% | body exposure relative to subcutaneous administration ([5]; orally): 17% | AUC ([5]; PO 40 mg/kg): 276 ng·h/mL | AUC ([5]; SC 40 mg/kg): 1620 ng·h/mL | AUC ([5]; iv 20 mg/kg): 896 ng·h/mL | IC50 [6]: 4 µM | IC50 (LNCaP): 12 µM
